Like-named read-outs stand apart in the source and are kept apart here.
Assays:
[1] = molecular target: T1, LTA4-h (Homo sapiens, UniProt P09960); assay: peptidase (aminopeptidase) assay; assay type: biochemical
T1 sequence (P09960 1-611): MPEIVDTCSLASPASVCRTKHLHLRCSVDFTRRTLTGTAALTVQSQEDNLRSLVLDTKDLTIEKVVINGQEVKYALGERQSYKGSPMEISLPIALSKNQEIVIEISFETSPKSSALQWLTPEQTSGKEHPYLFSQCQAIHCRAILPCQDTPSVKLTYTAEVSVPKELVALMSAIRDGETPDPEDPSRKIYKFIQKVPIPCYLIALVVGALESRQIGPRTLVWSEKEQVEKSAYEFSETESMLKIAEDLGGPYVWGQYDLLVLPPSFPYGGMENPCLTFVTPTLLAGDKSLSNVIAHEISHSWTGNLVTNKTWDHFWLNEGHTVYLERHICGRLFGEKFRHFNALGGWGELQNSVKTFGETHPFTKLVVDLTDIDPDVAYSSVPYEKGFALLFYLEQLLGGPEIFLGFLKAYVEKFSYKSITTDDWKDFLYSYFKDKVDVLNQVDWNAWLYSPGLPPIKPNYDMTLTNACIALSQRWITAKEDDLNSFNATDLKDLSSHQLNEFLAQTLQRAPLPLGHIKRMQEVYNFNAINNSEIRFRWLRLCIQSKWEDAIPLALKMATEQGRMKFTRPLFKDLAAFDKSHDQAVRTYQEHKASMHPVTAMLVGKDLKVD
Excerpt: Since LTA4-h hydrolase is grouped with the M1 family of zinc metalloproteases (see, Rudberg, P. C. et al., J. Biol. Chem. 2002, Vol. 277, page 1398-1404), the compounds of the invention can be tested in the standard hydrolase and peptidase assay to determine the compounds' kinetic constants for binding to LTA4-h hydrolase and for inhibiting LTB4 synthesis (see Askonas, L. J., et al., The Journal of Pharmacology and Experimental Therapeutics 2002, 300(2): 577-582; Penning, T. D., J. Med. Chem. 2000, 43(4): 721-735; Kull, F. et al., The Journal of Biological Chemistry 1999, 274 (49): 34683-34690, the contents of which are expressly incorporated by reference herein).
(§1) The whole blood and aminopeptidase assays were performed as described in Penning et al., J. Med. Chem. 2000, 43, 721-735, and Rudberg et al., J. Biol. Chem. Vol. 279, No. 26, Issue of June 25, pp. 27376-27382, 2004, the contents of each of which are expressly incorporated by reference herein. The hydrolase assay was performed as described in U.S. Pat. No. 7,737,145, the contents of which are expressly incorporated herein.

[2] = molecular target: T1, LTA4-h; assay: hydrolase assay (hydrolase-homogeneous time resolved fluorescence); assay type: biochemical
Excerpt: The compounds of the invention can be tested for their ability to inhibit LTA4-h by various known assays and by assays described herein. For example, the compounds can be tested for their ability to inhibit LTA4-h activity by assaying the compounds in the hydrolase-homogeneous time resolved fluoroescence assay. This assay, which is a two-step assay, measures the hydrolysis of […] to LTB4 by analyzing the amount of LTB4 produced. The first step involves the enzymatic conversion of […] to LTB4 and the second step involves the quantification of the […] with a homogeneous time resolved fluoroescence assay.
as §1, with “Tables 4 to 6 below show the IC50 values for peptidase, hydrolase and whole blood assay (WBA) activity for exemplary compounds encompassed by the invention. The whole” for “The whole”

[3] = molecular target: T2, LTA4-h hydrolase (Homo sapiens, UniProt P09960); assay: whole blood assay (WBA); assay type: cell-based
T2 construct: from tissue; host or cells: whole blood
T2 sequence (P09960 1-611): T1 sequence (P09960 1-611)
Excerpt: Compounds of the invention can also be tested for their ability as inhibitors of LTA4-h hydrolase in the whole blood assay using human, mouse, rat or dog whole blood (see Penning, T. D. et al., J. Med. Chem. (2000), 43(4): 721-735 for a description of a human whole blood assay and a mouse whole blood assay, the contents of which are expressly incorporated herein).
as §1, with “Tables 4 to 6 below show the IC50 values for peptidase, hydrolase and whole blood assay (WBA) activity for exemplary compounds encompassed by the invention. The whole” for “The whole”

[4] = system: ionophore-induced LTB4 production; details: oral administration; mouse blood ex vivo; cited from earlier work
[5] = system: ionophore-induced LTB4 production; details: oral administration; rat peritoneum in vivo; cited from earlier work
[6] = system: colitis; details: eight weeks of treatment; cotton top tamarins; cited from earlier work
[7] = prefix 'r' not defined, read-out: IC50 WBA, second value given with prefix 'r'

Compound	IC50 [1] [nM]	IC50 [2] [nM]	IC50 ([3]; read-out: IC50 WBA) [nM]	also measured
CN(Cc1ccc(C(=O)O)cc1)c1ccc(CNCc2ccc(Oc3ccc(Cl)cc3)cc2)cn1 [Compound 1]	490	280	210	–
O=C(O)C1CCN(c2ccc(CNCc3ccc(Oc4ccc(Cl)cc4)cc3)cn2)CC1 [Compound 2]	68	69	730	IC50 [3, 7]: 360 nM
O=C(O)c1ccc(Oc2ncccc2CNCc2ccc(Oc3ccc(Cl)cc3)cc2)cc1 [Compound 3]	21	100	800	IC50 [3, 7]: 420 nM
CN(Cc1ccc(Oc2ccc(Cl)cc2)cc1)Cc1ccc(Oc2ccc(C(=O)O)cc2)nc1 [Compound 4]	300	–	2100	inhibition at 1 µM ([2]; at 1 uM): 47%
CN(Cc1ccc(Oc2ccc(Cl)cc2)cc1)Cc1ccc(N2CCC(C(=O)O)CC2)nc1 [Compound 5]	45	43	570	–
CCOC(=O)c1ccc(Oc2ncccc2CNCc2ccc(Oc3ccc(Cl)cc3)cc2)cc1 [Compound 6]	–	–	–	inhibition at 1 µM [1]: 18%
CCOC(=O)c1ccc(Oc2ncccc2CN(C)Cc2ccc(Oc3ccc(Cl)cc3)cc2)cc1 [Compound 7]	–	–	–	inhibition at 1 µM [1]: 11%
CN(Cc1ccc(Oc2ccc(Cl)cc2)cc1)Cc1cccnc1Oc1ccc(C(=O)O)cc1 [Compound 8]	78	50	290	–
CCOC(=O)c1ccc(Oc2ncccc2CNCc2ccc(Oc3ccc(-c4ncco4)cc3)cc2)cc1 [Compound 9]	–	–	–	inhibition at 1 µM [1]: 45%
O=C(O)c1ccc(Oc2ncccc2CNCc2ccc(Oc3ccc(-c4ncco4)cc3)cc2)cc1 [Compound 10]	39	23	1900	–
CCOC(=O)c1ccc(Oc2ncccc2CN(C)Cc2ccc(Oc3ccc(-c4ncco4)cc3)cc2)cc1 [Compound 11]	–	–	–	inhibition at 1 µM [1]: 17%
CN(Cc1ccc(Oc2ccc(-c3ncco3)cc2)cc1)Cc1cccnc1Oc1ccc(C(=O)O)cc1 [Compound 12]	12	33	360	–
O=C(O)c1cccc(Oc2ncccc2CNCc2ccc(Oc3ccc(-c4ncco4)cc3)cc2)c1 [Compound 13]	75	1400	2300	–
COc1cc(C(=O)O)ccc1Oc1ncccc1CNCc1ccc(Oc2ccc(-c3ncco3)cc2)cc1 [Compound 14]	61	350	1500	–
COCCN(Cc1ccc(Oc2ccc(Cl)cc2)cc1)Cc1ccccc1Oc1cccc(C(=O)O)c1 [Compound 15]	470	–	1950	inhibition at 3 µM [2]: 18%
Cc1c(C(=O)O)ncn1-c1ccc(CNCc2ccc(Oc3ccc(Cl)cc3)cc2)cn1 [Compound 16]	81	3	880	–
O=C(O)C1CCCN(c2ccc(CNCCc3ccc(Oc4nc5ccccc5s4)cc3)cc2)C1 (stereo not shown) [Compound 17]	54	5	–	–
O=C(O)C1CCCN(c2ccc(CNCCc3ccc(Oc4ncccn4)cc3)cc2)C1 (stereo not shown) [Compound 18]	16	68	–	–
O=C(O)C1CCCN(c2ccc(CNCc3ccc(Oc4ccc(Cl)cc4)cc3)cc2F)C1 (stereo not shown) [Compound 19]	45	–	–	–
CN(CC(=O)O)c1ccc(CNCc2ccc(Oc3ccc(Cl)cc3)cc2)cn1 [Compound 20]	10	–	–	–
O=C(O)CCNc1ccc(CNCc2ccc(Oc3ccc(Cl)cc3)cc2)cn1 [Compound 21]	2	–	–	–

Compound	IC50 [1] [nM]	IC50 [2] [nM]	IC50 ([3]; read-out: IC50 WBA) [nM]	also measured
O=C(O)C1CCCN(c2ccc(CNCc3ccc(Oc4ccc(Cl)cc4)cc3)cn2)C1 (stereo not shown) [Compound 22]	3.9	4.8	32	–
COCCN(Cc1ccc(Oc2ccc(Cl)cc2)cc1)Cc1ccc(N2CCCC(C(=O)O)C2)nc1 (stereo not shown) [Compound 23]	85	700	470	–
CN(Cc1ccc(Oc2ccc(Cl)cc2)cc1)Cc1ccc(N2CCCC(C(=O)O)C2)nc1 (stereo not shown) [Compound 24]	28	150	–	–
O=C(O)C1CCCN(c2ccc(CNCc3ccc(Oc4ccc(-c5ncco5)cc4)cc3)cn2)C1 (stereo not shown) [Compound 25]	13	3	55	–
CN(Cc1ccc(Oc2ccc(-c3ncco3)cc2)cc1)Cc1ccc(N2CCCC(C(=O)O)C2)nc1 (stereo not shown) [Compound 26]	33	85	180	–
CN(Cc1ccc(Oc2ccc(Cl)cc2)cc1)Cc1ccc(N2CCCC(C(=O)O)C2)nc1 (stereo not shown) [Compound 27]	48	320	510	–
C=CCOc1ccc(CNCc2ccc(N3CCCC(C(=O)O)C3)nc2)cc1 (stereo not shown) [Compound 28]	73	260	1000	–
O=C(O)C1CCCN(c2ccc(CNCc3ccc(Oc4nc5ccccc5s4)cc3)cn2)C1 (stereo not shown) [Compound 29]	4	–	160	–
O=C(O)C1CCCN(c2ccc(CNCc3ccc(Oc4nc5ccccc5s4)cc3)cn2)C1 (stereo not shown) [Compound 30]	5	1	120	–
O=C(O)C1CCCN(c2ccc(CNCc3ccc(OC/C=C/c4ccccc4)cc3)cn2)C1 (stereo not shown) [Compound 31]	42	9	230	–
CC(C)=CCOc1ccc(CNCc2ccc(N3CCCC(C(=O)O)C3)nc2)cc1 (stereo not shown) [Compound 32]	10	37	–	–
O=C(O)C1CCCN(c2ccc(CNCc3ccc(Oc4ccc5c(c4)OCO5)cc3)cn2)C1 (stereo not shown) [Compound 33]	8	8	–	–
O=C(O)C1CCCN(c2ccc(CNCc3ccc(Oc4ncccn4)cc3)cn2)C1 (stereo not shown) [Compound 34]	13	86	–	–
O=C(O)C1CCCN(c2ccc(CNCc3ccc(OCc4ccc(Cl)cc4)cc3)cn2)C1 (stereo not shown) [Compound 35]	45	110	–	–
O=C(O)C1CCCN(c2ccc(CNCc3ccc(Oc4cnc5ccccc5n4)cc3)cn2)C1 (stereo not shown) [Compound 36]	7	19	–	–
O=C(O)[C@H]1CCCN(c2ccc(CNCc3ccc(Oc4cnc5ccccc5n4)cc3)cn2)C1 [Compound 37]	12	–	–	–
O=C(O)[C@@H]1CCCN(c2ccc(CNCc3ccc(Oc4cnc5ccccc5n4)cc3)cn2)C1 [Compound 38]	16	–	–	–
O=C(O)C1CCCN(c2ccc(CNCc3ccc(Oc4ccc5cc(Cl)ccc5n4)cc3)cn2)C1 (stereo not shown) [Compound 39]	170	–	–	–
O=C(O)C1CCCN(c2ccc(CNCc3ccc(Oc4ccc(CCO)cc4)cc3)cn2)C1 (stereo not shown) [Compound 40]	21	–	–	–
O=C(O)c1ccc(CNc2ccc(Oc3ccc(Cl)cc3)cc2)cc1 [Compound 42]	850	–	> 3000	inhibition at 3 µM [2]: 0%
CN(CCCOc1ccc(Cc2ccccc2)cc1)CCC(=O)O.Cl [SC57461]	–	–	–	inhibition of ionophore-induced LTB4 production [4]: caused inhibition; inhibition of ionophore-induced LTB4 production [5]: caused inhibition; colitis symptoms [6]: significantly improved colitis symptoms
